{"source": "PubChem BioAssay (NCI)", "experiment_in_all_cases": "inhibition of tumour cell growth, NCI panel, 48 h", "key": {"KM12 colon": {"test_system": "KM12 colon"}, "NCI-H226 lung": {"test_system": "NCI-H226 lung"}, "CCRF-CEM leukemia": {"test_system": "CCRF-CEM leukemia"}, "HOP-18 NSCLC": {"test_system": "HOP-18 NSCLC"}, "OVCAR-3 ovarian": {"test_system": "OVCAR-3 ovarian"}, "COLO 205 colon": {"test_system": "COLO 205 colon"}, "SW-620 colon": {"test_system": "SW-620 colon"}, "A549 NSCLC": {"test_system": "A549 NSCLC"}, "SF-295 CNS": {"test_system": "SF-295 CNS"}, "DMS 114 small cell lung": {"test_system": "DMS 114 small cell lung"}, "UACC-257 melanoma": {"test_system": "UACC-257 melanoma"}, "ACHN renal": {"test_system": "ACHN renal"}, "SNB-78 CNS": {"test_system": "SNB-78 CNS"}, "SK-MEL-28 melanoma": {"test_system": "SK-MEL-28 melanoma"}, "OVCAR-5 ovarian": {"test_system": "OVCAR-5 ovarian"}, "NCI-H460 lung": {"test_system": "NCI-H460 lung"}, "LOX IMVI melanoma": {"test_system": "LOX IMVI melanoma"}, "CAKI-1 renal": {"test_system": "CAKI-1 renal"}, "RXF-631 renal": {"test_system": "RXF-631 renal"}, "SK-MEL-2 melanoma": {"test_system": "SK-MEL-2 melanoma"}, "HCT-116 colon": {"test_system": "HCT-116 colon"}, "M14 melanoma": {"test_system": "M14 melanoma"}, "SNB-19 CNS": {"test_system": "SNB-19 CNS"}, "DLD-1 colon": {"test_system": "DLD-1 colon"}, "HL-60(TB) leukemia": {"test_system": "HL-60(TB) leukemia"}, "EKVX NSCLC": {"test_system": "EKVX NSCLC"}, "IGROV1 ovarian": {"test_system": "IGROV1 ovarian"}, "UACC-62 melanoma": {"test_system": "UACC-62 melanoma"}, "DMS 273 small cell lung": {"test_system": "DMS 273 small cell lung"}, "U251 CNS": {"test_system": "U251 CNS"}, "M19-MEL melanoma": {"test_system": "M19-MEL melanoma"}, "OVCAR-4 ovarian": {"test_system": "OVCAR-4 ovarian"}, "KM20L2 colon": {"test_system": "KM20L2 colon"}, "RXF 393 renal": {"test_system": "RXF 393 renal"}, "SK-OV-3 ovarian": {"test_system": "SK-OV-3 ovarian"}, "SF-268 CNS": {"test_system": "SF-268 CNS"}, "786-0 renal": {"test_system": "786-0 renal"}, "HOP-92 NSCLC": {"test_system": "HOP-92 NSCLC"}, "HCC-2998 colon": {"test_system": "HCC-2998 colon"}, "NCI-H23 lung": {"test_system": "NCI-H23 lung"}, "HT29 colon": {"test_system": "HT29 colon"}, "A498 renal": {"test_system": "A498 renal"}, "XF 498 CNS": {"test_system": "XF 498 CNS"}, "SN12C renal": {"test_system": "SN12C renal"}, "LXFL 529 NSCLC": {"test_system": "LXFL 529 NSCLC"}, "K-562 leukemia": {"test_system": "K-562 leukemia"}, "SNB-75 CNS": {"test_system": "SNB-75 CNS"}, "TK-10 renal": {"test_system": "TK-10 renal"}, "SR leukemia": {"test_system": "SR leukemia"}, "OVCAR-8 ovarian": {"test_system": "OVCAR-8 ovarian"}, "SK-MEL-5 melanoma": {"test_system": "SK-MEL-5 melanoma"}, "UO-31 renal": {"test_system": "UO-31 renal"}, "RPMI-8226 leukemia": {"test_system": "RPMI-8226 leukemia"}, "HCT-15 colon": {"test_system": "HCT-15 colon"}, "MALME-3M melanoma": {"test_system": "MALME-3M melanoma"}, "HOP-62 NSCLC": {"test_system": "HOP-62 NSCLC"}, "SF-539 CNS": {"test_system": "SF-539 CNS"}, "MOLT-4 leukemia": {"test_system": "MOLT-4 leukemia"}}, "note": "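Assay format: 96-well plates, 48-hour exposure. TGI marks complete inhibition of growth.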", "data": [{"molecule": "COc1ccc(/C=c2\\sc3nnc(CCC(=O)Nc4cccc(C(F)(F)F)c4)n3c2=O)cc1", "values": [{"measurement": "TGI", "setting": "KM12 colon", "value": "> 100", "unit": "µM"}, {"measurement": "TGI", "setting": "NCI-H226 lung", "value": "> 100", "unit": "µM"}, {"measurement": "TGI", "setting": "CCRF-CEM leukemia", "value": 90.3, "unit": "µM"}, {"measurement": "TGI", "setting": "HOP-18 NSCLC", "value": "> 100", "unit": "µM"}, {"measurement": "TGI", "setting": "OVCAR-3 ovarian", "value": "> 100", "unit": "µM"}, {"measurement": "TGI", "setting": "COLO 205 colon", "value": "> 100", "unit": "µM"}, {"measurement": "TGI", "setting": "SW-620 colon", "value": "> 100", "unit": "µM"}, {"measurement": "TGI", "setting": "A549 NSCLC", "value": "> 100", "unit": "µM"}, {"measurement": "TGI", "setting": "SF-295 CNS", "value": "> 100", "unit": "µM"}, {"measurement": "TGI", "setting": "DMS 114 small cell lung", "value": "> 100", "unit": "µM"}, {"measurement": "TGI", "setting": "UACC-257 melanoma", "value": "> 100", "unit": "µM"}, {"measurement": "TGI", "setting": "ACHN renal", "value": "> 100", "unit": "µM"}, {"measurement": "TGI", "setting": "SNB-78 CNS", "value": "> 100", "unit": "µM"}, {"measurement": "TGI", "setting": "SK-MEL-28 melanoma", "value": "> 100", "unit": "µM"}, {"measurement": "TGI", "setting": "OVCAR-5 ovarian", "value": "> 100", "unit": "µM"}, {"measurement": "TGI", "setting": "NCI-H460 lung", "value": "> 100", "unit": "µM"}, {"measurement": "TGI", "setting": "LOX IMVI melanoma", "value": "> 100", "unit": "µM"}, {"measurement": "TGI", "setting": "CAKI-1 renal", "value": "> 100", "unit": "µM"}, {"measurement": "TGI", "setting": "RXF-631 renal", "value": "> 100", "unit": "µM"}, {"measurement": "TGI", "setting": "SK-MEL-2 melanoma", "value": "> 100", "unit": "µM"}, {"measurement": "TGI", "setting": "HCT-116 colon", "value": "> 100", "unit": "µM"}, {"measurement": "TGI", "setting": "M14 melanoma", "value": "> 100", "unit": "µM"}, {"measurement": "TGI", "setting": "SNB-19 CNS", "value": "> 100", "unit": "µM"}, {"measurement": "TGI", "setting": "DLD-1 colon", "value": "> 100", "unit": "µM"}, {"measurement": "TGI", "setting": "HL-60(TB) leukemia", "value": "> 71.6", "unit": "µM"}, {"measurement": "TGI", "setting": "EKVX NSCLC", "value": "> 100", "unit": "µM"}, {"measurement": "TGI", "setting": "IGROV1 ovarian", "value": "> 100", "unit": "µM"}, {"measurement": "TGI", "setting": "UACC-62 melanoma", "value": "> 100", "unit": "µM"}, {"measurement": "TGI", "setting": "DMS 273 small cell lung", "value": "> 100", "unit": "µM"}, {"measurement": "TGI", "setting": "U251 CNS", "value": "> 100", "unit": "µM"}, {"measurement": "TGI", "setting": "M19-MEL melanoma", "value": "> 100", "unit": "µM"}, {"measurement": "TGI", "setting": "OVCAR-4 ovarian", "value": "> 100", "unit": "µM"}, {"measurement": "TGI", "setting": "KM20L2 colon", "value": "> 100", "unit": "µM"}, {"measurement": "TGI", "setting": "RXF 393 renal", "value": 98.5, "unit": "µM"}, {"measurement": "TGI", "setting": "SK-OV-3 ovarian", "value": "> 100", "unit": "µM"}, {"measurement": "TGI", "setting": "SF-268 CNS", "value": "> 100", "unit": "µM"}, {"measurement": "TGI", "setting": "786-0 renal", "value": "> 100", "unit": "µM"}, {"measurement": "TGI", "setting": "HOP-92 NSCLC", "value": "> 100", "unit": "µM"}, {"measurement": "TGI", "setting": "HCC-2998 colon", "value": "> 100", "unit": "µM"}, {"measurement": "TGI", "setting": "NCI-H23 lung", "value": "> 100", "unit": "µM"}, {"measurement": "TGI", "setting": "HT29 colon", "value": "> 100", "unit": "µM"}, {"measurement": "TGI", "setting": "A498 renal", "value": "> 100", "unit": "µM"}, {"measurement": "TGI", "setting": "XF 498 CNS", "value": "> 100", "unit": "µM"}, {"measurement": "TGI", "setting": "SN12C renal", "value": "> 100", "unit": "µM"}, {"measurement": "TGI", "setting": "LXFL 529 NSCLC", "value": "> 100", "unit": "µM"}, {"measurement": "TGI", "setting": "K-562 leukemia", "value": "> 100", "unit": "µM"}, {"measurement": "TGI", "setting": "SNB-75 CNS", "value": "> 100", "unit": "µM"}, {"measurement": "TGI", "setting": "TK-10 renal", "value": "> 100", "unit": "µM"}, {"measurement": "TGI", "setting": "SR leukemia", "value": 75.8, "unit": "µM"}, {"measurement": "TGI", "setting": "OVCAR-8 ovarian", "value": "> 100", "unit": "µM"}, {"measurement": "TGI", "setting": "SK-MEL-5 melanoma", "value": "> 100", "unit": "µM"}, {"measurement": "TGI", "setting": "UO-31 renal", "value": "> 100", "unit": "µM"}, {"measurement": "TGI", "setting": "RPMI-8226 leukemia", "value": "> 95.5", "unit": "µM"}, {"measurement": "TGI", "setting": "HCT-15 colon", "value": "> 100", "unit": "µM"}, {"measurement": "TGI", "setting": "MALME-3M melanoma", "value": "> 100", "unit": "µM"}, {"measurement": "TGI", "setting": "HOP-62 NSCLC", "value": "> 100", "unit": "µM"}, {"measurement": "TGI", "setting": "SF-539 CNS", "value": "> 100", "unit": "µM"}, {"measurement": "TGI", "setting": "MOLT-4 leukemia", "value": "> 27.4", "unit": "µM"}]}]}
